Reference: the NIST ThermoML archive (doi:10.1016/j.jct.2005.09.004)
Numbers after ± are expanded uncertainties.

How the values were obtained:
[1] = for surface tension liquid-gas: Drop volume; for mass density: 101.33 kPa, Liquid
[2] = refractive index (Na D-line) (dimensionless); details: 101.33 kPa, Liquid, Standard Abbe refractometry

surface tension liquid-gas ([1]; 283.15 K) [mN/m] | mass density ([1]; 283.15 K) [kg/m3] | surface tension liquid-gas ([1]; 298.15 K) [mN/m] | mass density ([1]; 298.15 K) [kg/m3] | surface tension liquid-gas ([1]; 313.15 K) [mN/m] | mass density ([1]; 313.15 K) [kg/m3] | refractive index ([2]; 283.15 K) | refractive index ([2]; 298.15 K) | refractive index ([2]; 313.15 K) | SMILES
35.09 ± 0.39 | 1045.16 ± 0.14 | 33.23 ± 0.37 | 1027.85 ± 0.12 | 31.23 ± 0.35 | 1010.99 ± 0.11 | 1.42721 ± 0.00031 | 1.41992 ± 0.00031 | 1.41256 ± 0.00031 | C1COCCO1 [1,4-dioxane]
26.28 ± 0.3 | 787.97 ± 0.3 | 24.73 ± 0.28 | 773.65 ± 0.32 | 22.93 ± 0.26 | 759.59 ± 0.33 | 1.43182 ± 0.00031 | 1.42348 ± 0.00031 | 1.41498 ± 0.00031 | C1CCCCC1 [cyclohexane]
24.14 ± 0.3 | 754.85 ± 0.77 | 22.06 ± 0.28 | 739.74 ± 0.79 | 19.76 ± 0.25 | 724.71 ± 0.81 | 1.41197 ± 0.00037 | 1.40335 ± 0.00037 | 1.39451 ± 0.00037 | C1CCCC1 [cyclopentane]
